Experimental data as given in patent US9108963B2, “Pyrazolopyridine, pyrazolopyrazine, pyrazolopyrimidine, pyrazolothiophene and pyrazolothiazole compounds as MGLUR4 allosteric potentiators, compositions, and methods of treating neurological dysfunction” (Vanderbilt University, priority 2010, dated 2015).
Like-named read-outs stand apart in the source and are kept apart here.

Columns and labels:
mGluR4 = mGluR4 (UniProt Q14833); assay: mGluR4 potentiation assay (Ca2+ or thallium flux fluorescence, agonist EC20); assay type: cell-based, human or rat
Procedure: The disclosed compounds and compositions can be evaluated for their ability to act as a potentiator of metabotropic glutamate receptor activity, in particular mGluR4 activity, by any suitable known methodology known in the art. For example, Chinese Hamster Ovary (CHO) cells transfected with human mGluR4 or HEK cells co-transfected with rat mGluR4 and the G-protein regulated Inwardly Rectifying Potassium channel (GIRK) were plated in clear bottom assay plates for assay in a Hamamatsu FDSS Fluorometric Plate Reader. The cells were loaded with either a Ca2+-sensitive fluorescent dye or the thallium responsive dye and the plates were washed and placed into a suitable kinetic plate reader. For human mGluR4 assays, a fluorescence baseline was established for 3-5 seconds, the disclosed compounds were then added to the cells, and the response in cells was measured. Approximately two and a half minutes later, a concentration of mGluR4 orthosteric agonist (e.g. glutamate or L-AP4) eliciting approximately 20% (EC20) of the maximal agonist response was added to the cells, and the response was measured. Two minutes later, a concentration of mGluR4 agonist (e.g. glutamate or L-AP4) eliciting 80% (EC80) of the maximal agonist response was added to the cells, and the response was measured. For rat mGluR4/GIRK experiments, a baseline was established for approximately five seconds, disclosed compounds were added, and either an EC20 or EC80 concentration of agonist was added approximately two and one half minutes later.
The above described assay operated in two modes. In the first mode, a range of concentrations of the disclosed compounds are added to cells, followed by a single fixed concentration of agonist. If the compound acts as a potentiator, an EC50 value for potentiation and a maximum extent of potentiation by the compound at this concentration of agonist is determined by non-linear curve fitting. If the compound acts as a noncompetitive antagonist, an IC50 value is determined by non-linear curve fitting. In the second mode, several fixed concentrations of the disclosed compounds are added to various wells on a plate, followed by a range in concentrations of agonist for each concentration of disclosed compound. The EC50 values for the agonist at each concentration of compound are determined by non-linear curve fitting. A decrease in the EC50 value of the agonist with increasing concentrations of the sample compound (a leftward shift of the agonist concentration-response curve) is an indication of the degree of mGluR4 potentiation at a given concentration of the sample compound. A decrease in the maximal response of the agonist with increasing concentrations of the sample compounds, with or without a rightward shift in agonist potency, is an indication of the degree of noncompetitive antagonism at mGluR4. The second mode also indicates whether the sample compounds also affect the maximum response to mGluR4 to agonists.

mGluR5 = target: T1, mGluR5 (Rattus norvegicus, UniProt P31424); assay: mGluR5 negative allosteric modulation, decrease in response to non-maximal glutamate in HEK cells; assay type: cell-based; details: Table 3; read-out: mGlu5 IC50
T1 construct: expressed in transfected cells; host or cells: human embryonic kidney (HEK) cells
Source text: Embodiments of the present invention are also mGluR5 negative allosteric modulators. Accordingly, in one aspect, the invention relates to compounds that are also useful as negative allosteric modulators of the metabotropic glutamate receptor subtype 5 (mGluR5). Negative allosteric modulators are non-competitive antagonists and can include a range of maximal antagonist activity from partial antagonists to inverse agonists. In one aspect, the present invention relates to compounds that allosterically modulate mGluR5 receptor activity, affecting the sensitivity of mGluR5 receptors to agonists without acting as orthosteric agonists themselves. […] The compounds of the invention can be useful in the treatment neurological and psychiatric disorders associated with glutamate dysfunction and other diseases in which metabotropic glutamate receptors are involved, as further described herein. […] In further aspect, the human embryonic kidney cells are transfected with human mGluR5. In yet a further aspect, human embryonic kidney cells are transfected with mGluR5 of a mammal.
In further aspect, the human embryonic kidney cells are transfected with human mGluR5. In yet a further aspect, human embryonic kidney cells are transfected with mGluR5 of a mammal.

[1] = Table 2, potentiation of mGluR4 agonist response, read-out: EC50

T1 sequence (P31424 21-1203): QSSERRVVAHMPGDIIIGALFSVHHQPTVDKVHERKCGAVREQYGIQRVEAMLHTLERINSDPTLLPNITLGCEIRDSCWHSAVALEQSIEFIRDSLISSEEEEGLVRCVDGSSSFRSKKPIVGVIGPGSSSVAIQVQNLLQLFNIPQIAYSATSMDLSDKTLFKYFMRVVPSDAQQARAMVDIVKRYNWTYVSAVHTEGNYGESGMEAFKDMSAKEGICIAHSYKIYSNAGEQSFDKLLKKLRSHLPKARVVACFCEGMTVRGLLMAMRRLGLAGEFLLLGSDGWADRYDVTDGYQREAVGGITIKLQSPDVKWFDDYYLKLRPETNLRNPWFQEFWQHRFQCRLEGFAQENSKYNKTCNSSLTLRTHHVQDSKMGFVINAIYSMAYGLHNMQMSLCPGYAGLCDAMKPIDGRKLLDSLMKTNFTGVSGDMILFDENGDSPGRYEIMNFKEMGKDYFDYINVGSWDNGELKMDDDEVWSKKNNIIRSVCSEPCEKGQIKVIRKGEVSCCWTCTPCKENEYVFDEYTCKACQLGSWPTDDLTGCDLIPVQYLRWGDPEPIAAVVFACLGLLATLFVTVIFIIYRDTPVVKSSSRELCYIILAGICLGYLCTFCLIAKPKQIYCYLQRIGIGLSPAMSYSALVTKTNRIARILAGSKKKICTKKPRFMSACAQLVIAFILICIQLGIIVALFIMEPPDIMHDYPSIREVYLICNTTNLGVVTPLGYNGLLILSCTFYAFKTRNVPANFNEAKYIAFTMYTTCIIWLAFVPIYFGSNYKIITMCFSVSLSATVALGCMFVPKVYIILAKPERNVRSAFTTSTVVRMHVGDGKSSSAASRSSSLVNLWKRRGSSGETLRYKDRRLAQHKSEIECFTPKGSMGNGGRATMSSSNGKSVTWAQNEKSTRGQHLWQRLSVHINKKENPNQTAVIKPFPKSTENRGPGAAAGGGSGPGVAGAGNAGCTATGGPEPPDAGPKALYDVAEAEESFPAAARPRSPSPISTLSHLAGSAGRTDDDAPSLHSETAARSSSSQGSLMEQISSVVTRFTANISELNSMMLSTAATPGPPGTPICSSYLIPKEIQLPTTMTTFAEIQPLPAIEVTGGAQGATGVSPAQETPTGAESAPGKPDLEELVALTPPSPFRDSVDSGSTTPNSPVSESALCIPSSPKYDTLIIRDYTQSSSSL

Compound | EC50 (mGluR4; Table 3, read-out: mGlu4 EC50) | IC50 (mGluR5) | EC50 (mGluR4; [1])
COc1ccnc(Nc2ccc(Nc3n[nH]c4cccnc34)cc2Cl)n1 [Example 123, 2-chloro-N1-(4-methoxypyrimidin-2-yl)-N4-(1H-pyrazolo[4,3-b]pyridin-3-yl)benzene-1,4-diamine] | 25.5 nM | 670 nM | 
FC(F)(F)c1ccnc(Nc2ccc(Nc3n[nH]c4cccnc34)cc2Cl)c1 [Example 121, 2-chloro-N4-(1H-pyrazolo[4,3-b]pyridin-3-yl)-N1-(4-(trifluoromethyl)pyridin-2-yl)benzene-1,4-diamine] | 56.9 nM |  | 
Clc1cc(Nc2n[nH]c3cccnc23)ccc1OC1CCCCC1 [Example 106, N-(3-chloro-4-(cyclohexyloxy)phenyl)-1H-pyrazolo[4,3-b]pyridin-3-amine] |  |  | 470 nM
Clc1cc(Nc2n[nH]c3cccnc23)ccc1Nc1ncc2ccccc2n1 [Example 125, 2-chloro-N4-(1H-pyrazolo[4,3-b]pyridin-3-yl)-N1-(quinazolin-2-yl)benzene-1,4-diamine] | 21.6 nM |  | 
N#Cc1cncc(Oc2ccc(Nc3n[nH]c4cccnc34)cc2Cl)c1 [Example 111, 5-(4-((1H-pyrazolo[4,3-b]pyridin-3-yl)amino)-2-chlorophenoxy)nicotinonitrile] |  |  | 84.8 nM
Cc1cccc(Nc2ccc(Nc3n[nH]c4cccnc34)cc2Cl)n1 [Example 120, 2-chloro-N1-(6-methylpyridin-2-yl)-N4-(1H-pyrazolo[4,3-b]pyridin-3-yl)benzene-1,4-diamine] | 31.5 nM | 550 nM | 
Clc1cc(Nc2n[nH]c3cccnc23)ccc1Nc1nccc2cccnc12 [Example 128, 2-chloro-N1-(1,7-naphthyridin-8-yl)-N4-(1H-pyrazolo[4,3-b]pyridin-3-yl)benzene-1,4-diamine] | 455 nM |  | 
Cc1cc(Nc2n[nH]c3cccnc23)ccc1Nc1ncccn1 [Example 130, 2-methyl-N4-(1H-pyrazolo[4,3-b]pyridin-3-yl)-N1-(pyrimidin-2-yl)benzene-1,4-diamine] | 235 nM |  | 
FC(F)(F)c1cccnc1Nc1ccc(Nc2n[nH]c3cccnc23)cc1Cl [Example 124, 2-chloro-N4-(1H-pyrazolo[4,3-b]pyridin-3-yl)-N1-(3-(trifluoromethyl)pyridin-2-yl)benzene-1,4-diamine] | 1560 nM | 1540 nM | 
Clc1cc(Nc2n[nH]c3cccnc23)ccc1Nc1cnc2ccccc2n1 [Example 126, 2-chloro-N4-(1H-pyrazolo[4,3-b]pyridin-3-yl)-N1-(quinoxalin-2-yl)benzene-1,4-diamine] | 38 nM | 3700 nM | 
Clc1cc(Nc2n[nH]c3cccnc23)ccc1Nc1cc2ccccc2cn1 [Example 115, 2-chloro-N1-(isoquinolin-3-yl)-N4-(1H-pyrazolo[4,3-b]pyridin-3-yl)benzene-1,4-diamine] | 37.2 nM |  | 
Clc1cc(Nc2n[nH]c3cccnc23)ccc1OCC1CCCC1 [Example 105, N-(3-chloro-4-(cyclopentylmethoxy)phenyl)-1H-pyrazolo[4,3-b]pyridin-3-amine] |  |  | 400 nM
Clc1cc(Nc2n[nH]c3cccnc23)ccc1Nc1cnc2ccccc2c1 [Example 122, 2-chloro-N4-(1H-pyrazolo[4,3-b]pyridin-3-yl)-N1-(quinolin-3-yl)benzene-1,4-diamine] | 162 nM |  | 

The remaining lines, values ahead:

EC50 (mGluR4; Table 3, read-out: mGlu4 EC50) | IC50 (mGluR5) | EC50 (mGluR4; [1]) | Compound
 |  | 1190 nM | Clc1cc(Nc2n[nH]c3cccnc23)ccc1OCc1ncccn1 [Example 108, N-(3-chloro-4-(pyrimidin-2-ylmethoxy)phenyl)-1H-pyrazolo[4,3-b]pyridin-3-amine]
43.9 nM | 3600 nM |  | Clc1cc(Nc2n[nH]c3cccnc23)ccc1Nc1ncccn1 [Example 118, 2-chloro-N4-(1H-pyrazolo[4,3-b]pyridin-3-yl)-N1-(pyrimidin-2-yl)benzene-1,4-diamine]
 |  | 265 nM | Cc1cc(Nc2n[nH]c3cccnc23)ccc1Oc1ncccn1 [Example 113, N-(3-methyl-4-(pyrimidin-2-yloxy)phenyl)-1H-pyrazolo[4,3-b]pyridin-3-amine]
 |  | 1500 nM | Clc1ccccc1COc1ccc(Nc2n[nH]c3cccnc23)cc1Cl [Example 104]
 |  | 610 nM | C[C@H](Oc1ccc(Nc2n[nH]c3cccnc23)cc1Cl)c1ccccn1 [Example 107, (S)-N-(3-chloro-4-(1-(pyridin-2-yl)ethoxy)phenyl)-1H-pyrazolo[4,3-b]pyridin-3-amine]
 |  | 497 nM | FC(F)(F)c1ccnc(Oc2ccc(Nc3n[nH]c4cccnc34)cc2Cl)c1 [Example 97, N-(3-chloro-4-((4-(trifluoromethyl)pyridin-2-yl)oxy)phenyl)-1H-pyrazolo[4,3-b]pyridin-3-amine]
33.5 nM | 582 nM |  | Clc1cc(Nc2n[nH]c3cccnc23)ccc1Nc1ccccn1 [Example 114, 2-chloro-N4-(1H-pyrazolo[4,3-b]pyridin-3-yl)-N1-(pyridin-2-yl)benzene-1,4-diamine]
 |  | 400 nM | Clc1cc(Nc2n[nH]c3cccnc23)ccc1OCc1cccnc1 [Example 102, N-(3-chloro-4-(pyridin-3-ylmethoxy)phenyl)-1H-pyrazolo[4,3-b]pyridin-3-amine]
19.4 nM | 970 nM |  | Cc1ccnc(Nc2ccc(Nc3n[nH]c4cccnc34)cc2Cl)c1 [Example 129, 2-chloro-N1-(4-methylpyridin-2-yl)-N4-(1H-pyrazolo[4,3-b]pyridin-3-yl)benzene-1,4-diamine]
 |  | 1600 nM | CC(Oc1ccc(Nc2n[nH]c3cccnc23)cc1Cl)c1ccccc1 (stereo not drawn) [Example 100, N-(3-chloro-4-(1-phenylethoxy)phenyl)-1H-pyrazolo[4,3-b]pyridin-3-amine]
 |  | 180 nM | Fc1ccccc1COc1ccc(Nc2n[nH]c3cccnc23)cc1Cl [Example 99]
 |  | 611 nM | Fc1cncc(Oc2ccc(Nc3n[nH]c4cccnc34)cc2Cl)c1 [Example 112, N-(3-chloro-4-((5-fluoropyridin-3-yl)oxy)phenyl)-1H-pyrazolo[4,3-b]pyridin-3-amine]
 |  | 1230 nM | C[C@H](Oc1ccc(Nc2n[nH]c3cccnc23)cc1Cl)c1ccncc1 [Example 110, (S)-N-(3-chloro-4-(1-(pyridin-4-yl)ethoxy)phenyl)-1H-pyrazolo[4,3-b]pyridin-3-amine]
 |  | 360 nM | Clc1cc(Nc2n[nH]c3cccnc23)ccc1OCc1nccs1 [Example 103, N-(3-chloro-4-(thiazol-2-ylmethoxy)phenyl)-1H-pyrazolo[4,3-b]pyridin-3-amine]
82.5 nM | 2430 nM |  | Clc1cccc(Nc2ccc(Nc3n[nH]c4cccnc34)cc2Cl)n1 [Example 116, 2-chloro-N1-(6-chloropyridin-2-yl)-N4-(1H-pyrazolo[4,3-b]pyridin-3-yl)benzene-1,4-diamine]
 |  | 1000 nM | Clc1cc(Nc2n[nH]c3cccnc23)ccc1OC1CCCc2cccnc21 (stereo not drawn) [Example 109, N-(3-chloro-4-((5,6,7,8-tetrahydroquinolin-8-yl)oxy)phenyl)-1H-pyrazolo[4,3-b]pyridin-3-amine]
 |  | 635 nM | Fc1cccnc1Oc1ccc(Nc2n[nH]c3cccnc23)cc1Cl [Example 98, N-(3-chloro-4-((3-fluoropyridin-2-yl)oxy)phenyl)-1H-pyrazolo[4,3-b]pyridin-3-amine]
 |  | 270 nM | Clc1cc(Nc2n[nH]c3cccnc23)ccc1OCc1ccncc1 [Example 101, N-(3-chloro-4-(pyridin-4-ylmethoxy)phenyl)-1H-pyrazolo[4,3-b]pyridin-3-amine]
